# From publication PMC6278399, “Synthesis and Anticancer Activity Evaluation of Hydrolyzed Derivatives of Panaxnotoginseng Saponins” (Molecules, 2018)
# How the values were obtained:
# [1] = tested on: human colon cancer cells (HT-29); experiment: MTT cytotoxicity assay, HT-29; assay type: cell-based; settings: HT-29, MTT, 48 h
# Description: (§1) In the study, five cancer cell lines (human colon cancer cells (HT-29), gastric cancer cells (BGC-823), cervical cancer cells (Hela), human breast cancer cells (MCF-7), and human lung cancer cells A549)), and two normal cell lines (human gastric epithelial cells (GES-1) and human ovarian epithelial cells (IOSE144)) were used for the evaluation of biological activity. IOSE144 cells were donated by Professor Piao Huri of Yanbian University, all other cells were purchased from the American Type Culture Collection (ATCC, Manassas, VA, USA). Cells were cultured in Dulbecco’s Modified Eagle’s Medium (DMEM), supplemented with 10% heat-inactivated fetal bovine serum (FBS), 1% 100 μg/mL penicillin and 100 μg/mL streptomycin in a humidified atmosphere containing 5% CO2 at 37 °C. Cell viability was measured using the MTT assay. Cells were seeded in 96 well microtiter plates in a volume of 100 μL medium. All compounds tested were dissolved and further diluted in DMSO. After overnight incubation, cells were treated with different test concentrations or carrier solvents alone in a final volume of 100 μL with five replicates each. […] Cells were treated with compound (80, 40, 20, 10, 5 μM) for 48 h. Then, 10 μL of MTT (5 mg/mL) was added to each well and the cells were incubated at 37 °C in the dark for 4 h. Supernatants were removed and formazan crystals were dissolved in DMSO (100 μL/well). The solution was agitated for 10 min, and the absorbance was measured at 490 nm using microplate reader (imark, BIO-RAD, Hercules, CA, USA) to calculate the 50% inhibitory concentration (IC50). Ginsenoside-Rg3, panaxadiol sapogenin (PD), AD-2 (25-OH-PPD) and AD-1 (25-OCH3-PPD) were used as standard reference compounds.
# [2] = tested on: gastric cancer cells (BGC-823); experiment: MTT cytotoxicity assay, BGC-823; assay type: cell-based, human; settings: BGC-823, MTT, 48 h
# Description: as §1
# [3] = tested on: cervical cancer cells (Hela); experiment: MTT cytotoxicity assay, Hela; assay type: cell-based, human; settings: 48 h
# Description: as §1
# [4] = tested on: human breast cancer cells (MCF-7); experiment: MTT cytotoxicity assay, MCF-7; assay type: cell-based; settings: MCF-7, MTT, 48 h
# Description: as §1
# [5] = tested on: human lung cancer cells A549; experiment: MTT cytotoxicity assay, A549; assay type: cell-based; settings: 48 h
# Description: as §1
# [6] = tested on: human gastric epithelial cells (GES-1); experiment: MTT cytotoxicity assay, GES-1 normal cells; assay type: cell-based; settings: GES-1 normal cells, MTT, 48 h
# Description: as §1
# [7] = tested on: human ovarian epithelial cells (IOSE144); experiment: MTT cytotoxicity assay, IOSE144 normal cells; assay type: cell-based; settings: IOSE144 normal cells, MTT, 48 h
# Description: as §1
# [8] = MTT cytotoxicity assay, GES-1 normal cells; assay type: cell-based, human; settings: human, GES-1 gastric epithelial cells (normal cell line); GES-1 normal cells, MTT, 48 h; read-out: IC50
# Description: as §1
# [9] = MTT cytotoxicity assay, IOSE144 normal cells; assay type: cell-based, human; settings: human, IOSE144 ovarian epithelial cells (normal cell line); IOSE144 normal cells, MTT, 48 h; read-out: IC50
# Description: as §1
# MCF-7 cells [10] = experiment: Cell cycle distribution assay, MCF-7; assay type: cell-based, human; settings: MCF-7, 30 μM, 24 h; controls 0.73% (3b) and 1.69% (AD-1)
# Experimental: MCF-7 cells treated with 30 μM of compound 3b were incubated for 24 h in CO2 incubator. AD-1 was tested as a positive control, and the experimental concentration of AD-1 was 30 μM. Cells were trypsinized, harvested, washed with PBS, and fixed with 75% ethanol overnight at −20 °C. Next, fixed cells were washed with PBS and stained for 4 h in the dark with a PI solution consisting of 50 μg/mL PI, 50 μg/mL RNase, 0.1% sodium citrate and 0.1% Triton X-100 (pH 8.0). Cell cycle distribution was determined using FACScan (Becton Dickinson, Franklin Lakes, NJ, USA).
# MCF-7 cells [11] = experiment: Wound healing assay; assay type: cell-based, human; settings: MCF-7, 30 μM, 24 h, serum-free
# Experimental: MCF-7 cells were seeded in 10-cm dishes at a concentration of 1 × 10^5 cells/ mL and grown overnight. Then, a wound was created in the monolayer of cells by scratching the monolayer with a sharp tip followed by another 24 h of incubation in the presence of 30 μM of compound 3b or 0.1% DMSO under serum-free conditions, 30 μM of AD-1 as a positive control. The gap created was measured under a microscope to provide an indication of the wound healing capability of the cells.
# [12] = parameters: method as in earlier work; settings: stronger than ginsenoside-Rg3; cited from earlier work
compound,measurement,setting,value
"CC(C)=CCC[C@](C)(O)[C@H]1CC[C@]2(C)[C@@H]1[C@H](O)C[C@@H]1[C@@]3(C)CC[C@H](O[C@@H]4O[C@H](CO)[C@@H](O)[C@H](O)[C@H]4O[C@@H]4O[C@H](CO)[C@@H](O)[C@H](O)[C@H]4O)C(C)(C)[C@@H]3CC[C@]12C [Rg3, Ginsenoside-Rg3, reference compound]",IC50,[1],> 100 µM
same,IC50,[2],> 100 µM
same,IC50,[3],85.2 ± 1.59 µM
same,IC50,[4],92.1 ± 2.36 µM
same,IC50,[5],> 100 µM
same,IC50,[6],> 100 µM
same,IC50,[7],> 100 µM
"COC(C)(C)CCC[C@@](C)(O)C1CC[C@]2(C)C1[C@H](O)CC1[C@@]3(C)CC[C@H](O)C(C)(C)C3CC[C@]12C (some centres unmarked) [AD-1, 25-methoxyprotopanaxadiol, reference compound]",IC50,[1]; Homo sapiens,16.6 ± 0.25 µM
same,IC50,[2]; Homo sapiens,16.6 ± 0.45 µM
same,IC50,[3]; Homo sapiens,12.99 ± 0.06 µM
same,IC50,"[4]; Homo sapiens, MCF7",7.34 ± 0.19 µM
same,IC50,[5]; Homo sapiens,34.32 ± 0.31 µM
same,IC50 at 48 h,[8],> 100 µM
same,IC50 at 48 h,[9],> 100 µM
same,subG1 phase after treatment,MCF-7 cells [10],38.45%
same,MCF-7 cell migration (wound distance),MCF-7 cells [11],inhibited the migration of MCF-7 cells
same,antitumor activity compared with ginsenoside-Rg3,[12],5–15 fold
